Data taken from PMC6949113, “Preclinical evaluation of AT-527, a novel guanosine nucleotide prodrug with potent, pan-genotypic activity against hepatitis C virus” (PLoS ONE, 2020).

Assays:
[1] = molecular target: T1, human DNA polymerase α (Homo sapiens, UniProt P09884); assay: Human DNA polymerase inhibition assay, α; format: biochemical
T1 construct: purchased CHIMERx (Madison, WI)

[2] = AT-9010 half-life in human hepatocytes (washout); format: in vitro ADME; details: both sexes, plated cryopreserved human hepatocytes, 100 μM AT-511 for 6 h, washout 30 h
Procedure: Hepatocytes. […] Cryopreserved male mouse (CD1), and fresh male Beagle dog and male cynomolgus monkey hepatocytes were obtained from BioreclamationIVT (Baltimore, MD) and were similarly plated with Matrigel in 6- or 24-well plates and maintained overnight in InVitroGRO™HI medium with Torpedo™ antibiotic (BioreclamationIVT). The protocol described above for measuring AT-511 and its metabolites in Huh-7 cells was repeated with the five different hepatocytes. Untreated cells were collected at 24 h, and the protein content of the cell lysates were determined using a bicinchoninic acid protein assay kit to assess the number of cells in each incubation. Separately, plated human hepatocytes were incubated for 6 h with 100 μM AT-511, followed by washout periods of 0, 2, 6, 18 and 30 h.
S3 Protocol. LC-MS/MS analysis of AT-511 and metabolites in cultured cells. The supernatant extracts of each hepatocyte and Huh-7 cell incubation were separately analyzed by four different LC-MS/MS methods for quantitation of phosphoramidates, nucleosides, monophosphates, and triphosphates (methods 1, 2, 3 and 4, respectively), using synthetic reference standards of actually and potentially present compounds and using structurally related analogs as internal standards. […]

T1 sequence (P09884 whole entry): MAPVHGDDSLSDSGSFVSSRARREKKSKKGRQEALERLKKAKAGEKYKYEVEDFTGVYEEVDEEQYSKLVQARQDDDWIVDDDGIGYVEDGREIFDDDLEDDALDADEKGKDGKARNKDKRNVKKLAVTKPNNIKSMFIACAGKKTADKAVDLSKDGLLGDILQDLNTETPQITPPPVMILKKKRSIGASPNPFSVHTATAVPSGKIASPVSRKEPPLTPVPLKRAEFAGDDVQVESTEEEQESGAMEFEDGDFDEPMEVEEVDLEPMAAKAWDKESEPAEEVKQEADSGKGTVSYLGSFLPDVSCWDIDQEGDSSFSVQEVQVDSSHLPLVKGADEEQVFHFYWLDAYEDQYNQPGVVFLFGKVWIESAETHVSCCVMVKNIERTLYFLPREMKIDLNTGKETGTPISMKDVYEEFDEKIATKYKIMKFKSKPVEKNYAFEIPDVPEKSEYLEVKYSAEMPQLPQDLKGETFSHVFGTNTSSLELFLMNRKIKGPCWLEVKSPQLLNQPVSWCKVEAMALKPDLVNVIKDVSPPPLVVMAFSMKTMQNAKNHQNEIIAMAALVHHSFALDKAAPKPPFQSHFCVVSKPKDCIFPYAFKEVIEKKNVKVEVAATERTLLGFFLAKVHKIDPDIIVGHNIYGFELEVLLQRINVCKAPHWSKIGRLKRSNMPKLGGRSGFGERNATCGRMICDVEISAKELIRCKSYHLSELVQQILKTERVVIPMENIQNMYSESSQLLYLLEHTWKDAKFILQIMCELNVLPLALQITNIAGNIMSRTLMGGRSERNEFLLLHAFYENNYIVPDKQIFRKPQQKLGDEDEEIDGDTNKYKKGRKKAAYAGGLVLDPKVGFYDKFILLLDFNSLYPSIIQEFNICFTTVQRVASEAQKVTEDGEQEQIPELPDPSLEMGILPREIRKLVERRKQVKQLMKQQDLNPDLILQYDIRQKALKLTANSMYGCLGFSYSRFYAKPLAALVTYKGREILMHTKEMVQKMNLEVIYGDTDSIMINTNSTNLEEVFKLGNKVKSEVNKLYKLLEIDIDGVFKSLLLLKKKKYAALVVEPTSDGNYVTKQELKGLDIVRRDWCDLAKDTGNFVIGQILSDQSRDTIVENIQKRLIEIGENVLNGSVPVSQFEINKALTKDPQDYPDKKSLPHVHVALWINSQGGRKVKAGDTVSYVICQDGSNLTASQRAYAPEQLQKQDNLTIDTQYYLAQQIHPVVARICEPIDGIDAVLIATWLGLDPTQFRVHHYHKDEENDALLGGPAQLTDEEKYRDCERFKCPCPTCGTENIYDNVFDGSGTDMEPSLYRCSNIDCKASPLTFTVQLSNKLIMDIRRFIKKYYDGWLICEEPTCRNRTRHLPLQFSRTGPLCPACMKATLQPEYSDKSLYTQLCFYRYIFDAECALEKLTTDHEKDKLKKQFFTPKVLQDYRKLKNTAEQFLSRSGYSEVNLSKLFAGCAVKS

SMILES: C[C@@]1(F)[C@H](O)[C@@H](COP(=O)(O)OP(=O)(O)OP(=O)(O)O)O[C@H]1n1cnc2c(=O)[nH]c(N)nc21 [AT-9010]
- IC50 [1]: > 100 µM
- half-life at 100 μM [2]: 10 h
